How the values were obtained:
ORYSAT (Rice, Tebonnet) [1] = assay: Rice tolerance to post-transplant applications, flooded paddy conditions (Table III); assay type: in vivo, Oryza sativa, (L.) Tebonnet; conditions: in vivo
Summary of the method: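 Two ten-day-old Tebonnet seedlings transplanted into flooded silt loam (water 1.5 to 3 cm above soil); three days later the water surface was treated with compound in aqueous/acetone 50/50 at about 0.0313 to 0.500 kg/ha. Visual 0-9 injury rating versus control after three to four weeks in greenhouse.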

CASOB (Sicklepod) = assay: Postemergence herbicidal evaluation; assay type: in vivo, Cassia obtusifolia; conditions: for Herbicidal rating CASOB: postemergence
Summary of the method: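 Visual 0-9 injury score (stand, vigor, malformation, size, chlorosis, appearance vs untreated) taken four to five weeks post-spray, averaged across repeat tests. Test plants about two weeks old; foliar spray of acetone/water (1:1) with 0.5% surfactant delivering ~0.0156-0.500 kg active/ha.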

[2] = tested on: TRZAWR (Wheat, Winter, cv Riband); assay: Preemergence herbicidal evaluation; assay type: in vivo, Triticum aestivum; conditions: rated 4-5 weeks after treatment
Summary of the method: (§1)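 Rating at 4–5 wk post-spray on a 0–9 visual scale vs control. Application: aqueous acetone, ~0.0156–0.500 kg/ha, to soil surface after seeding, preemergence.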

[3] = tested on: SAGPY (Arrowhead (Pygmaea)); assay: Preemergence weed control under flooded paddy conditions; assay type: in vivo, Sagittaria pygmaea; conditions: rated 3-4 weeks after treatment
Summary of the method: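 Seeds or propagules sown in top 0.5 cm of silt loam soil, flooded 1.5 to 3 cm above surface throughout. Compound in 50/50 v/v aqueous/acetone pipetted into flood water at about 0.0313 to 0.500 kg/ha. Visual 0-9 rating versus control after three to four weeks in greenhouse.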

ORYSAT (Rice, Tebonnet) [4] = assay: Preemergence herbicidal evaluation; assay type: in vivo, Oryza sativa, (L.) Tebonnet; conditions: rated 4-5 weeks after treatment
Summary of the method: as §1

[5] = tested on: GLXMAW (Soybean, Williams); assay: Preemergence herbicidal evaluation; assay type: in vivo, Glycine max, (L.) Merr. cv Williams; conditions: rated 4-5 weeks after treatment
Summary of the method: as §1

MOOVA (Monochoria) = assay: Postemergence weed control under flooded paddy conditions; assay type: in vivo, Monochoria vaginalis; conditions: postemergence weeds, 3-4 weeks after treatment
Summary of the method: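 With weeds 3 to 5 cm tall and rice at the 1.5 to 2.5 leaf stage, containers were flooded and water held 1.5 to 3 cm above soil. Compounds in 50/50 v/v aqueous/acetone went into the flood water at about 0.0313 to 0.500 kg/ha a.i. Effects were visually rated 0–9 against controls after three to four weeks in the greenhouse.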

[6] = rate 0.0156 kg/ha, rating scale 0-9
[7] = rate 0.0313 kg/ha, rating scale 0-9
[8] = rate 0.0625 kg/ha, rating scale 0-9
[9] = rate 0.1250 kg/ha, rating scale 0-9
[10] = rate 0.2500 kg/ha, rating scale 0-9

Row | Compound | herbicidal effect rating, ORYSAT (rice tolerance) (ORYSAT (Rice, Tebonnet) [1]) | Herbicidal rating CASOB (CASOB (Sicklepod); rate 0.0156 kg/ha) | Herbicidal rating CASOB (CASOB (Sicklepod); rate 0.0313 kg/ha) | Herbicidal rating CASOB (CASOB (Sicklepod); rate 0.0625 kg/ha) | Preemergence herbicidal rating TRZAWR [2, 7] | Preemergence herbicidal rating TRZAWR [2, 8] | Preemergence herbicidal rating TRZAWR [2, 9] | Preemergence herbicidal rating TRZAWR [2, 10] | herbicidal effect rating, SAGPY ([3]; 0.0313 kg/ha) | herbicidal effect rating, SAGPY ([3]; 0.0625 kg/ha) | herbicidal effect rating, SAGPY ([3]; 0.1250 kg/ha) | herbicidal effect rating, SAGPY ([3]; 0.2500 kg/ha) | Preemergence herbicidal rating ORYSAT (ORYSAT (Rice, Tebonnet) [4]; [7]) | Preemergence herbicidal rating ORYSAT (ORYSAT (Rice, Tebonnet) [4]; [8]) | Preemergence herbicidal rating ORYSAT (ORYSAT (Rice, Tebonnet) [4]; [9]) | Preemergence herbicidal rating ORYSAT (ORYSAT (Rice, Tebonnet) [4]; [10]) | Preemergence herbicidal rating GLXMAW [5, 7] | Preemergence herbicidal rating GLXMAW [5, 8] | Preemergence herbicidal rating GLXMAW [5, 9] | Preemergence herbicidal rating GLXMAW [5, 10] | also measured
1 | Cn1c(C(F)(F)F)cc(=O)n(-c2cc(N=C3SCC(=O)N3Cc3ccc(C(F)(F)F)cc3)c(Cl)cc2F)c1=O [Compound 141, 3-{4-Chloro-2-fluoro-5-{{3-[p-(trifluoromethyl)benzyl]-4-oxo-2-thiazolidinylidene}-amino}phenyl}-1-methyl-6-(trifluoromethyl)-2,4 (1H, 3H)-pyrimidinedione] | 0.0 | 0.0 | 0.0 | 0.0 | 0.0 | 0.0 | 0.0 | 0.0 | 4.0 | 5.0 | 5.0 | 6.0 | 0.0 | 0.0 | 0.0 | 0.0 | 0.0 | 0.0 | 0.0 | 3.0 | Preemergence herbicidal rating TRZAWR [2, 6]: 0.0; Preemergence herbicidal rating ORYSAT (ORYSAT (Rice, Tebonnet) [4]; [6]): 0.0; Preemergence herbicidal rating GLXMAW [5, 6]: 0.0
2 | CCOC(=O)CN1C(=O)C(COC)SC1=Nc1cc(-n2c(=O)cc(C(F)(F)F)n(C)c2=O)c(F)cc1Cl (stereo not drawn) [Compound 156, Ethyl 2-{{2-chloro-5-[3,6-dihydro-3-methyl-2,6-dioxo-4-(trifluoromethyl)-1(2H)-pyrimidinyl]-4-fluorophenyl}imino}-5-(methoxymethyl)-4-oxo-3-thiazolidine-acetate] | 3.0 | 0.0 | 0.0 | 1.0 | 0.0 | 0.0 | 0.0 | 3.0 | – | – | – | 0.0 | 0.0 | 0.0 | 0.0 | 3.0 | 0.0 | 0.0 | 0.0 | 7.0 | –
3 | CCOC(=O)CN1C(=O)C(C(=O)OC(C)(C)C)SC1=Nc1cc(-n2c(=O)cc(C(F)(F)F)n(C)c2=O)c(F)cc1Cl (stereo not drawn) [Compound 167, 5-Carboxy-2-{{2-chloro-5-[3,6-dihydro-3-methyl-2,6-dioxo-4-(trifluoromethyl)-1(2H)-pyrimidinyl]-4-fluorophenyl}imino}-4-oxo-3-thiazolidineacetic acid, 5-tert-butyl ethyl ester] | 4.0 | 1.0 | 2.0 | 1.0 | – | – | – | – | 4.0 | 5.0 | 6.0 | 7.0 | – | – | – | – | – | – | – | – | Herbicidal rating CASOB (CASOB (Sicklepod); rate 0.1250 kg/ha): 4.0; Preemergence herbicidal rating TRZAWR ([2]; 0.0156 kg/ha): 0.0; Preemergence herbicidal rating TRZAWR ([2]; 0.0313 kg/ha): 0.0; Preemergence herbicidal rating TRZAWR ([2]; 0.0625 kg/ha): 1.0; Preemergence herbicidal rating TRZAWR ([2]; 0.1250 kg/ha): 3.0; Preemergence herbicidal rating TRZAWR ([2]; 0.2500 kg/ha): 4.0; Preemergence herbicidal rating TRZAWR ([2]; 0.5000 kg/ha): 5.0; Preemergence herbicidal rating ORYSAT (ORYSAT (Rice, Tebonnet) [4]; 0.0156 kg/ha): 0.0; Preemergence herbicidal rating ORYSAT (ORYSAT (Rice, Tebonnet) [4]; 0.0313 kg/ha): 0.0; Preemergence herbicidal rating ORYSAT (ORYSAT (Rice, Tebonnet) [4]; 0.0625 kg/ha): 1.0; Preemergence herbicidal rating ORYSAT (ORYSAT (Rice, Tebonnet) [4]; 0.1250 kg/ha): 4.0; Preemergence herbicidal rating ORYSAT (ORYSAT (Rice, Tebonnet) [4]; 0.2500 kg/ha): 5.0; Preemergence herbicidal rating ORYSAT (ORYSAT (Rice, Tebonnet) [4]; 0.5000 kg/ha): 6.0; Preemergence herbicidal rating GLXMAW ([5]; 0.0156 kg/ha): 1.0; Preemergence herbicidal rating GLXMAW ([5]; 0.0313 kg/ha): 0.0; Preemergence herbicidal rating GLXMAW ([5]; 0.0625 kg/ha): 0.0; Preemergence herbicidal rating GLXMAW ([5]; 0.1250 kg/ha): 4.0; Preemergence herbicidal rating GLXMAW ([5]; 0.2500 kg/ha): 4.0; Preemergence herbicidal rating GLXMAW ([5]; 0.5000 kg/ha): 7.0
4 | CN(C)c1ccc(CN2C(=O)CSC2=Nc2cc(-n3c(=O)cc(C(F)(F)F)n(C)c3=O)c(F)cc2Cl)cc1 [Compound 138, 3-{4-Chloro-5-{{3-[p-(dimethylamino)benzyl]-4-oxo-2-thiazolidinylidene}amino}-2-fluorophenyl}-1-methyl-6-(trifluoromethyl)-2,4(1H,3H)-pyrimidinedione] | 3.0 | 0.0 | 1.0 | 6.0 | 0.0 | 0.0 | 0.0 | 0.0 | 0.0 | 0.0 | 0.0 | 3.0 | 0.0 | 0.0 | 0.0 | 0.0 | 0.0 | 0.0 | 0.0 | 1.0 | Preemergence herbicidal rating TRZAWR [2, 6]: 0.0; Preemergence herbicidal rating ORYSAT (ORYSAT (Rice, Tebonnet) [4]; [6]): 0.0; Preemergence herbicidal rating GLXMAW [5, 6]: 0.0
5 | 2-{{2-Chloro-5-[3,6-dihydro-3-methyl-2,6-dioxo-4-(trifluoromethyl)-1(2H)-pyrimidinyl]-4-fluoro-phenyl}imino}-4-oxo-3,5-thiazolidenediacetic acid, 3-ethyl (2-propynyl) ester, (2:1) mixture with di-2-propynyl ester [Compound 58] | – | – | – | – | – | – | – | – | – | – | – | – | – | – | – | – | – | – | – | – | ORYSAT herbicidal effect rating (rice tolerance) (ORYSAT (Rice, Tebonnet) [1]): 4.0; Herbicidal rating MOOVA (MOOVA (Monochoria); rate 0.0313 kg/ha): 0.0; Herbicidal rating MOOVA (MOOVA (Monochoria); rate 0.0625 kg/ha): 0.0; Herbicidal rating MOOVA (MOOVA (Monochoria); rate 0.1250 kg/ha): 3.0; Herbicidal rating MOOVA (MOOVA (Monochoria); rate 0.2500 kg/ha): 9.0; Postemergence herbicidal rating CASOB (CASOB (Sicklepod); Rate 0.0158 kg/ha): 0.0; Postemergence herbicidal rating CASOB (CASOB (Sicklepod); Rate 0.0315 kg/ha): 2.0; Postemergence herbicidal rating CASOB (CASOB (Sicklepod); Rate 0.0630 kg/ha): 3.0; SAGPY herbicidal effect rating ([3]; 0.0313 kg/ha): 0.0; Herbicidal rating SAGPY ([3]; 0.0625 kg/ha): 0.0; Herbicidal rating SAGPY ([3]; 0.1250 kg/ha): 0.0; Herbicidal rating SAGPY ([3]; 0.2500 kg/ha): 4.0
